Assay results published in patent US20230107216A1, “PANTETHEINE DERIVATIVES AND USES THEREOF” (Comet Therapeutics, Inc., priority 2018, published 2023).
Read-outs that look alike come from different tables or passages of the source.

Legend:
[1] = system: oligodendrocyte precursor cells (OPC) in mixed brain cultures; test: Oligodendrocyte precursor cells (OPC) proliferation, O4+ cell count; type: cell-based, mouse; conditions: 10 uM
Method: The effect of compounds of the present disclosure was determined on oligodendrocyte precursor cells proliferation (OPC).
Cell culture. Brains of wild type mice (whole brain from 1 or 2 mouse pups) less than postnatal day (P) 2 were isolated and cultured. Briefly, following removal of the meninges, cells were dissociated with 0.25% EDTA/CMF-DMEM and 1% Trypsin (1:1), plated at a density of 75,000 cells/on 0.1 mg/ml poly-L-lysine coated borosilicate glass coverslips in 24-well plates, grown in OPC differentiation media (Oligo media) consisting of DMEM/F12 (Invitrogen 21331-020) supplemented with 1% FBS, 1% N2 Neural Supplement (Invitrogen 17502-048) and PDGF receptor alpha growth factor (Invitrogen 17502-048). Cells were fed every other day and allowed to grow for 7 days in vitro (DIV).
OPCs treatment with compounds of the present disclosure. Cells were treated with compounds of the present disclosure (50-10 μM) or vehicle (0.1% DMSO) starting at 7 DIV. Media was replaced daily with freshly made working solutions of compounds or vehicle for either 48 h (9 DIV total) or 96 h (11 DIV). The 48 h group consisted of 1 coverslip per condition. The 96 h group was treated in duplicate.
Fresh aliquots of compounds of the present disclosure were made up on the day of treatment, briefly, a 50 mM stock was thawed and used to make up fresh 50 μM working solution in Oligo Media. The fresh 50 μM working solution was diluted further in Oligo Media to make 10 μM working solution. Vehicle controls was made up in fresh Oligo Media using the appropriate amount of vehicle (DMSO). Coverslips were stored in clean 24-well plates at 4° C. until fixed-staining. Cells were imaged using Leica DM5500 fluorescent microscope with LAS-X software.
Exposure settings were maintained at the same rate across compounds of the same time-point. Cells were imaged at 20× and 40× magnifications. At least 5 images were taken per condition. Most conditions had at least 5 images that were counted. 20× images were utilized for counting DAPI (cell nuclei) and O4+ cells.
Total DAPI per image for all images was counted using ImageJ as here indicated. • Image was converted to 8 bit • Blue Channel (DAPI) was automatically thresholded by default ImageJ settings • Image noise was reduced by ImageJ>Process>Noise>Despeckle • ImageJ>Process>Binary>Watershed was used to automatically separate merged cell nuclei • ImageJ>Analyze>Analyze Particles was used to obtain final count of DAPI per image • Total number of DAPI-positive cells
Total number of O4+ cells per 20× image was manually counted using Adobe Photoshop: • All cell bodies of OPCs with underlying DAPI stain were counted as an O4+ cell • Total number of O4+ cells were recorded in Excel Spreadsheet O4+ cells in mixed brain cultures of wild type mice <P2 treated with compounds of the present disclosure or vehicle were quantified per condition (time point and concentration). The following formula was used to normalize the total cell counts within a compound as well as across compounds treated for the same duration (48h vs. 96h):
(number of O4+cell counts in Compound X/Average DAPI count for Compound X)*Total Average DAPI count across compounds of same Time Point
Values were plotted as Scatter Interval plots in Origin. Each data point represents a single image from which O4+ cell values were obtained. Data are presented as mean±S.E.
Images are at 20× magnification and represent 1-2 coverslips per group. Scale bar, 50 μm.

[2] = system: primary fibroblasts (healthy controls and PA, MMA, BCKDK, PDH, VLCAD, LS, PC, GA, VLCFA, KSS, FXN, HD); test: Measurement of ROS (H2DCFDA) in primary fibroblasts; type: cell-based, human; conditions: Homo sapiens, procedure Example 812, Assay Condition C, read-out: Decreased ROS by at least 10%
Summary of the method: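 Patient and healthy-control primary fibroblasts switched to supplemented DMEM 24 h before assay, then treated with compound (10 μM) plus H2DCFDA (22 μM) for 2 h (PA, MMA lines) or 24 h (other lines). Kinetic fluorescence at 492/527 nm over 60 min; only live cells analysed.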

[3] = system: Pkd1−/− mouse inner medullary collecting duct cells (mIMRFNPKD 5E4); test: mPKD 3D cyst swelling assay (forskolin-induced); type: cell-based; conditions: after 72 hours of forskolin exposure
Method: Cell model and control compounds. mIMCD3 WT cells were obtained via ATCC and modified to create the mIMRFNPKD 5E4 cell line, which has a CRISPR-Cas mediated knockout for Pkd1 as described SLAS Discov. 2017 September; 22(8):974-984. doi: 10.1177/2472555217716056. Cells were cultured in DMEM/F12 (Sigma)+10% FBS (Sigma)+0.5% Pen/Strep (Gibco)+1% GluMax (Gibco). Control compounds used were forskolin (Calbiochem, 344282), Rapamycin (Selleckchem, S1039) and Staurosporin (Selleckchem, S1421).
The 3D mouse cyst swelling assay was performed with Pkd1^−/− mouse inner medullary collecting duct cells (mIMRFNPKD 5E4). The cyst swelling protocol that was used was described previously (SLAS Discov. 2017 September; 22(8):974-984. doi: 10.1177/2472555217716056), with further optimization.
3D culture and compound exposure. mIMRFNPKD 5E4 cells were mixed with Cyst-Gel (OcellO BV). 15 μL of cell-gel mix was pipetted to 384-well plates (Greiner μClear, Greiner Bio-One B.V.) using a CyBio Felix 96/60 robotic liquid dispenser (Analyik Jena AG). Gel-cell mix was plated at a final cell density of 2250 cells per well. After gel polymerization at 37° C. for 30 minutes, 33 μL culture medium was added to each well. Cells were grown in the gel for 96 hours, after which the cells were co-exposed with forskolin (Calbiochem, 344282) and one the following molecules: reference compound Rapamycin (SelleckChem, S1039), toxic control compound Staurosporin (SelleckChem, S1421) or test compounds.
Sample processing. After 72 hours, cultures were fixed with 4% Formaldehyde (Sigma Aldrich) and simultaneously permeabilized with 0.2% Triton-X100 (Sigma Aldrich) and stained with 0.25 μM rhodamine-phalloidin (Sigma Aldrich) and 0.1% Hoechst 33258 (Sigma Aldrich) in 1×PBS (Sigma Aldrich) for 2 days at 4° C., protected from light. After fixation and staining, plates were washed with 1×PBS, sealed with a Greiner SilverSeal (Greiner Bio-One B.V.) and stored at 4° C. prior to imaging.
Imaging and image analysis. Imaging was done using Molecular Devices ImageXpress Micro XLS (Molecular Devices) with a 4× NIKON objective. For each well around 35 images in the Z-direction were made for both channels, capturing the whole z-plane in each image. Image analysis was performed using Ominer™ software (OcellO BV). Cysts were segmented using detection of Hoechst-stained nuclei and Rhodamine-phalloidin-stained cellular f-actin. Cyst area was determined by calculating for the area in px of each object in every in-focus plain. This was averaged per well. (N represented is number of wells) Fraction of apoptotic nuclei as an indicator of toxicity was calculated as the amount of nuclei without actin signal relative to the total amount of nuclei, both as count-measurements. Statistics was done using KNIME Analytics Platform (Konstanz, Germany, http://www.knime.org/), graphs were prepared in GraphPad Prism 6 (GraphPad Software, La Jolla, Calif.).

[4] = system: HepG2 cells; test: Glucose uptake (Glucose Uptake-Glo); type: cell-based; conditions: Homo sapiens, 50 uM, read-out: % increase in Glucose Uptake
[5] = system: Venular Endothelial cells (HUVEC) (4H system); test: BioMAP 4H system (IL-4 and histamine); type: cell-based, human; conditions: Homo sapiens, HUVEC, 24 h; 1 uM; procedure of Example 826; read-out: % decrease in VEGFRII
[6] = system: Peripheral blood mononuclear cells co-cultured with venular endothelial cells (HUVEC) (LPS system); test: BioMAP LPS system; type: cell-based, human; conditions: procedure of Example 827
[7] = system: Bronchial epithelial cells co-cultured with dermal fibroblast (BF4T system); test: BioMAP BF4T system (TNFα and IL-4); type: cell-based, human; conditions: Homo sapiens, 24 h; 10 uM; procedure of Example 830; read-out: % increase in VCAM-1
[8] = system: Coronary artery smooth muscle cells (CASM3C system); test: BioMAP CASM3C system (IL-1β, TNFα, IFNγ); type: cell-based, human; conditions: 10 uM
[9] = system: Dermal fibroblasts (HDF3CGF system); test: BioMAP HDF3CGF system (IL-1β, TNFα, IFNγ, EGF, bFGF, PDGF-BB); type: cell-based, human
[10] = system: Peripheral blood mononuclear cells co-cultured with B-cells (BT system); conditions: 1 uM; procedure of Example 829
[11] = system: Peripheral blood mononuclear cells co-cultured with B-cells (BT system); test: cells; conditions: Homo sapiens, 72 h, read-out: % increase in sIL-6
[12] = system: HepG2 cells; test: MitoBiogenesis In-Cell ELISA (COX-I, SDH-A); type: cell-based; conditions: Homo sapiens, 168 h, 50 uM, 7 days, read-out: % increase in Mitochondrial Biogenesis
Excerpt: We determined the effect of compounds of the present disclosure on the levels of two mitochondrial proteins using MitoBiogenesis™ In-Cell ELISA Kit (Abcam ab110216) according to manufacturer's instructions. The two proteins are each subunits of a different oxidative phosphorylation enzyme complex, one protein being subunit I of Complex IV (COX-1), which is mitochondrial (mt)DNA-encoded, and the other being the 70 kDa subunit of Complex II (SDH-A), which is nuclear (n)DNA-encoded. Complex IV includes several proteins which are encoded in the mitochondrion, while the proteins of Complex II are entirely encoded in the nucleus. HepG2 cells (ATCC, HB-8065) were cultured (5% CO2 at 37° C.) and plated in Poly-D-Lysine 384-Well plate (Corning, 356663) at a density of 40,000 cells/mL in 50 μL. Culture and assay media consisted of DMEM (Gibco, 11995-065) supplemented with 1% Penicillin-Streptomycin and 10% FBS (Hyclone, SV30087.03). Cells were allowed to settle for 30 min at room temperature and further incubated overnight (37° C. and 5% CO2) for adherence. Next day, 50-5 μM of the negative control Chloramphenicol (Selleck, S1677), test compounds (50-10 μM) and vehicle DMSO (0.2%) were added at the recommended volumes to the 384-well plate for 7 days without media change using a Tecan compound dispenser. All the solutions and wash buffers were prepared and dispensed according to manufacturer's volumes for a 384-well plate format. Effects of compounds on mtDNA-encoded protein expression (COX-I) and nuclear DNA-encoded mitochondrial protein expression (SDH-A) were expressed as relative signal (nm) to vehicle of a n=2 per conditions.

[13] = system: HepG2 cells; test: Mitochondrial membrane potential (MITO-ID MP detection Kit); type: cell-based; conditions: Homo sapiens, 168 h, 10 uM, 7 days, read-out: % decrease in Mitochondrial Membrane Potential
Summary of the method: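 Cells plated at 160000 cells/mL in DMEM with 10% FBS and 1% Pen-Strep, adhered overnight at 37° C., 5% CO2. Exposure to test compounds (50-10 μM) or 0.2% DMSO for 7 days without media change; membrane potential measured with MITO-ID MP detection kit per manufacturer.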

Structure (SMILES): COC(=O)/C=C/C(=O)SCCNC(=O)CCNC(=O)[C@H](O)C(C)(C)CO [Compound 20, Methyl (R,E)-4-((2-(3-(2,4-dihydroxy-3,3-dimethylbutanamido)propanamido)ethyl)thio)-4-oxobut-2-enoate]
- % Increase OPC proliferation [1]: ≥25%
- inhibition at 10 µM ([2]; Fibroblast, NPC1 GM22879): ≥ 10%
- inhibition at 10 µM ([2]; FXN GM04078): ≥ 10%

Structure (SMILES): COC(=O)CCC(=O)CC(=O)SCCNC(=O)CCNC(=O)[C@H](O)C(C)(C)COC(C)=O [Compound 141, methyl 6-[(2-[3-[(2R)-4-(acetyloxy)-2-hydroxy-3,3-dimethylbutanamido]propanamido]ethyl)sulfanyl]-4,6-dioxohexanoate]
- % prevention of forskolin-induced cyst swelling ([3]; 50 uM): ≥10%
- activation at 50 µM [4]: ≥ 30%
- inhibition at 1 µM [5]: ≥ 20%
- % decrease in M-CSF ([6]; 1 uM): ≥10%
- inhibition at 10 µM ([6]; Homo sapiens, HUVEC, 24 h, 10 uM, read-out: % decrease in sPGE2): ≥ 10%
- activation at 10 µM ([6]; Homo sapiens, HUVEC, 24 h, 10 uM, read-out: % increase in sTNFα): ≥ 10%
- activation at 10 µM [7]: ≥ 20%
- % increase in Proliferation ([8]; procedure of Example 832): ≥10%
- inhibition at 10 µM ([8]; Homo sapiens, 24 h, read-out: % decrease in Thrombomodulin): ≥ 10%
- % decrease in Collagen I ([9]; 1 uM, procedure of Example 833): ≥10%
- % increase in SRB ([9]; 10 uM): ≥10%
- inhibition at 1 µM ([9]; Homo sapiens, Fibroblast, 24 h, 1 uM, read-out: % decrease in Collagen III): ≥ 10%
- % decrease in B-cell proliferation [10]: ≥10%
- activation at 1 µM [11]: ≥ 20%

Structure (SMILES): COC(=O)CCC(=O)SCCNC(=O)CCNC(=O)[C@H](O)C(C)(C)COP1(=O)OCCO1 [Compound 1308]
- % prevention of forskolin-induced cyst swelling ([3]; 10 uM): ≥10%
- activation at 50 µM [12]: > 5%
- inhibition at 10 µM [13]: > 50%
